Columns and labels:
RutR (RutR-His6; YcdC) [1] = molecular target: T1, RutR (RutR-His6; YcdC) (Escherichia coli, UniProt P0ACU2); format: binding; details: read-out: % inhibition at 100 μM
T1 sequence (P0ACU2 1-212): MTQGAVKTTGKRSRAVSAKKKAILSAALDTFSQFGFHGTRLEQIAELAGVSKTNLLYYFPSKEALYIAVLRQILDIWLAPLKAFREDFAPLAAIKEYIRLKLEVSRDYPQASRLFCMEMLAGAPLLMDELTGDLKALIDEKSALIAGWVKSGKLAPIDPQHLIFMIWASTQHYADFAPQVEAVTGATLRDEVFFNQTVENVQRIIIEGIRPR

RutR (RutR-His6; YcdC) [2] = molecular target: T1, RutR (RutR-His6; YcdC); assay: EMSA, inhibition of RutR binding to […]-labelled carP1

Row | SMILES | inhibition at 100 µM (RutR (RutR-His6; YcdC) [1]) [%] | IC50 (RutR (RutR-His6; YcdC) [2]) [nM]
1 | Cc1c[nH]c(=O)[nH]c1=O [thymine] | ~50 | –
2 | O=c1cc[nH]c(=O)[nH]1 [uracil] | – | ~100
